This is an account of results in paper PMC12362796, “Bilirubin Targeting WNK1 to Alleviate NLRP3‐Mediated Neuroinflammation” (Advanced Science, 2025).

The structures appear in SMILES notation. pKd: −log10 of the molar value.

Experiment [1] concerns primary cultured hippocampal neurons. Kind of experiment: MQAE intracellular chloride measurement in primary cultured hippocampal neurons. Format: cell-based, mouse. To be noted: co-treatment with bilirubin, DIV8 primary hippocampal neurons, MQAE. An excerpt:
Therefore, we hypothesized that bilirubin activation of WNK1 kinase activity might affect intracellular chloride levels. […] This was detected using the sensitive molecular probe N‐(Ethoxycarbonylmethyl)‐6‐Methoxyquinolinium Bromide (MQAE), as indicated by a reduction in MQAE fluorescence intensity (Figure 4C,E).^[ [32] ^]
To ascertain whether bilirubin regulates chloride ions through WNK1, we generated Wnk1 gene knockout primary cultured neurons. We achieved neuron‐specific deletion of Wnk1 in hippocampal neurons by transducing primary neurons isolated from Wnk1^flox/flox embryonic mice with a lentivirus expressing hSyn‐Cre‐EGFP.^[ [33], [34] ^] […] Intracellular chloride concentration is crucial for modulating inhibitory synaptic transmission and, consequently, neuronal excitability.
Since bilirubin‐induced activation of WNK1 kinase activity increases [Cl⁻]i in neurons, we sought to elucidate the downstream effector proteins of WNK1 that are involved in this process. Neuronal [Cl⁻]i is primarily regulated by the Cl⁻‐K⁺ symporter KCC2, with additional modulation by factors such as the Na⁺‐K⁺‐Cl⁻ co‐transporter NKCC1, GABAA receptors, and glycine receptors (GlyR), all of which contribute to [Cl⁻]i homeostasis.^[ [31] ^] To investigate the mechanism underlying bilirubin‐induced changes in [Cl⁻]i, we selectively targeted these proteins using pharmacological inhibitors (VU0463271 for KCC2, bumetanide for NKCC1, bicuculline for GABAA receptors, and strychnine for GlyR) and activated KCC2 using CLP257.^[ [35], [36] ^] […] The bilirubin‐induced effect on [Cl⁻]i was not observed in primary astrocytes (Figure S15A,B, Supporting Information) or the HEK 293T cell line (Figure S15C, Supporting Information), both of which lacked KCC2 expression (Figure S16A,B, Supporting Information), further confirming that the effects of bilirubin and WNK1 on [Cl⁻]i elevation are dependent on KCC2.
Intracellular chloride concentration ([Cl⁻]i) was measured using the MQAE fluorescent dye (Life Technologies) following established protocols (Zhang, Lee et al. 2015). […]

The subject of another experiment is TRPM2 channels. Also on record: method as in PMID 36921602. To be noted: structural derivative of bilirubin; previous research; cited from earlier work.
The target in a further experiment is T1, full-length hWNK1 (Homo sapiens, UniProt Q9H4A3).
T1 construct: We overexpressed full‐length WNK1 fused with Green Fluorescent Protein (GFP); expressed in transfected cells; host or cells: HEK293T
Briefly: MicroScale Thermophoresis (MST), EGFP-tagged full-length WNK1 in HEK293T cell lysates. Format: binding. To be noted: 15 min incubation, lysates of EGFP-WNK1 expressing HEK293T cells, control ligand. On the procedure: To validate the direct binding of bilirubin to WNK1, we performed a Microscale Thermophoresis (MST) analysis, which assesses the binding capacity of a compound by measuring the movement of proteins over a microscopic temperature gradient.^[ [26], [27] ^] We overexpressed full‐length WNK1 fused with Green Fluorescent Protein (GFP) in HEK‐293 cells, incubated the lysates with bilirubin at varying dilutions, and subjected them to precise MST measurements in capillaries. […] Furthermore, biliverdin, a structurally similar intermediate product generated before bilirubin formation, was used as a control.
All WNK1 clones were derived from the original untagged hWNK1 cDNA (NM_018979), which was modified and subcloned into the pcDNA3.1, referred to as “full‐length WNK1” throughout this study. Truncated constructs, including 1–190aa, 191–491aa, 1–491aa, and 491–2382aa fragments, were generated by PCR using the full‐length template and subsequently ligated into linearized pcDNA3.1 vectors. WNK2 was obtained from Addgene Plasmid #24569, and WNK3 was obtained from Addgene Plasmid #81723. Both were subjected to base modifications and cloned into pcDNA3.1. The WNK4 clone was derived from hWNK4 cDNA (NM_032387.5), modified, and subcloned into the pCMV3‐C‐GFPSpark vector.
In HEK293T cells, proteins tagged with green fluorescent protein (GFP) were expressed. […]

T1 sequence (Q9H4A3 whole entry, the tested form may be a part): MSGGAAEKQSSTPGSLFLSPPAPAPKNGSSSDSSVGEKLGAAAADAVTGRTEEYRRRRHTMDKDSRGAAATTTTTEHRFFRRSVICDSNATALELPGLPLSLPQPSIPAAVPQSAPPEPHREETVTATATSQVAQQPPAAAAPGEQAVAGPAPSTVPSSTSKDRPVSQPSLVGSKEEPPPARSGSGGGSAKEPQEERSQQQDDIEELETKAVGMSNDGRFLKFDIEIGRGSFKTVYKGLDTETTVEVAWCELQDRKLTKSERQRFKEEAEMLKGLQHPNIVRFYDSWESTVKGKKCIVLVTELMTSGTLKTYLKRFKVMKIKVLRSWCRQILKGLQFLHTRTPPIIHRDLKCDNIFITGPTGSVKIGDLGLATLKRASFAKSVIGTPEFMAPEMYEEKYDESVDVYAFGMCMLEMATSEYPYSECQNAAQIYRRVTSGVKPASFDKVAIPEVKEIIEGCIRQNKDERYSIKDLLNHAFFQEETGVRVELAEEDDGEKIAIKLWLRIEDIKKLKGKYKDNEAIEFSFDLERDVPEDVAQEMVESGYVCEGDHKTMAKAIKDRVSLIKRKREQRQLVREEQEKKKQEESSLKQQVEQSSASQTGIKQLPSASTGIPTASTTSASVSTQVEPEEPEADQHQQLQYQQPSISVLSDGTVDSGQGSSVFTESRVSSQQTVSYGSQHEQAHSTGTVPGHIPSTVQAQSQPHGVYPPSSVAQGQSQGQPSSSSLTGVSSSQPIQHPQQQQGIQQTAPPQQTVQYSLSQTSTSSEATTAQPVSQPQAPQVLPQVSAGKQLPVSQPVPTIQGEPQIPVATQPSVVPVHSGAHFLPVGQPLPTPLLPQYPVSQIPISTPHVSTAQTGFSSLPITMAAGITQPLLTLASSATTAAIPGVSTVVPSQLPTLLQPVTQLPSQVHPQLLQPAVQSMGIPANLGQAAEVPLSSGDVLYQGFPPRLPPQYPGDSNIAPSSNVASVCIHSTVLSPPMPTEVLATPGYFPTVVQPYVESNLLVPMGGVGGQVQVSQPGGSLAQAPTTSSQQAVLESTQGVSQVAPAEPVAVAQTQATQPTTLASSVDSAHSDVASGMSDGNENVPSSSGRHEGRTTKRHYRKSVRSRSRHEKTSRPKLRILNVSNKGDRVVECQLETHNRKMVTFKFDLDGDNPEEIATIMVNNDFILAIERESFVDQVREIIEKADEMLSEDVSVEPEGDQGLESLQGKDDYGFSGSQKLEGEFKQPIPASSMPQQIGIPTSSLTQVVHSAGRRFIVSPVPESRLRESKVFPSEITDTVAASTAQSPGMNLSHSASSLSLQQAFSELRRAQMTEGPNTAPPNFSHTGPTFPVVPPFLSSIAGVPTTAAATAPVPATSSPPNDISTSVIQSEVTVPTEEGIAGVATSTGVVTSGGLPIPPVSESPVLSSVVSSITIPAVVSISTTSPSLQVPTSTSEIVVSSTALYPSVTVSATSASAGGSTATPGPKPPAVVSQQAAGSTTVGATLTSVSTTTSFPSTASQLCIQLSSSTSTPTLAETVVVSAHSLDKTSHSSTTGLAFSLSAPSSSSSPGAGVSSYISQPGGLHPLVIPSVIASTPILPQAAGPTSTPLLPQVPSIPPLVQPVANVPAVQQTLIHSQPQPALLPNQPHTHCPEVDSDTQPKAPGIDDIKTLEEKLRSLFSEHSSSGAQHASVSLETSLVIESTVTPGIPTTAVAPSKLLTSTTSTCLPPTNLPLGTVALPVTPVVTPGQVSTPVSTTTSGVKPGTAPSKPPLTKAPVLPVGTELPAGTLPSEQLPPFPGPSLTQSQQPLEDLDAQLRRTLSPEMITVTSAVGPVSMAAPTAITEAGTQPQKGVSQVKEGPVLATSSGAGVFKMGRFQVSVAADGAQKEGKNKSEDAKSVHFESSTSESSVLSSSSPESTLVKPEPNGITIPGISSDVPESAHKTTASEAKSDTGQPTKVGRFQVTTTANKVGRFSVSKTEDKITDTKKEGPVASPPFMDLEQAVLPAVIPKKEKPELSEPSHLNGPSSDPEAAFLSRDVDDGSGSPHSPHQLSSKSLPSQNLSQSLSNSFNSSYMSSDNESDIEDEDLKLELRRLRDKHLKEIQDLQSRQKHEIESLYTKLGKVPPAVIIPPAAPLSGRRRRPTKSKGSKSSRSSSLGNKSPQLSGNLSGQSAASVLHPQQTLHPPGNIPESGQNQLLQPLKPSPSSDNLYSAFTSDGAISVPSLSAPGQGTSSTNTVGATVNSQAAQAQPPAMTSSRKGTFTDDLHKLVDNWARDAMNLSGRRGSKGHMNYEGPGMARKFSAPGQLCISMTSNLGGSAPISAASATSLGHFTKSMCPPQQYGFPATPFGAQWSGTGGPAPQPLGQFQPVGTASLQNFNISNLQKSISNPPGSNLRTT

With `O=C1N=C(N2CCCCN2)S/C1=C\c1ccc(F)cc1O` [CLP257, reference compound], the “effect on bilirubin-induced elevation of [Cl−]i” value in experiment [1] is listed as “counteracted the effect of bilirubin”.

In the case of `C=CC1=C(C)/C(=C/C2=NC(=C\c3[nH]c(/C=C4\NC(=O)C(C)=C4C=C)c(C)c3CCC(=O)O)/C(CCC(=O)O)=C2C)NC1=O` [Biliverdin, reference compound], the “activation of TRPM2 channels” value with TRPM2 channels is “can activate”. Besides, the pKd – broadly, the Kd on a negative log10 scale, so that one unit is a factor of ten – on full-length hWNK1 is 4.53.
